Test results: patent US10232012B2 (INDUSTRY-ACADEMIC COOPERATION FOUNDATION, YONSEI UNIVERSITY, priority 2016, dated 2019)
Read-outs that look alike come from different tables or passages of the source. Ends that are not written are not given here.

Assays:
PrP^SC in ScN2a cells = PrP^SC in ScN2a cells (Mus musculus, UniProt P04925); format: cell-based; settings: for anti-prion activity at 30 nM: pH 7.4
[1] = format: physicochemical
[2] = format: physicochemical; settings: pH 3
in vitro = settings: mouse, ScN2a cells, pH 7.4, cell survival rate

Chain of PrP^SC in ScN2a cells (P04925 23-230 limits assumed): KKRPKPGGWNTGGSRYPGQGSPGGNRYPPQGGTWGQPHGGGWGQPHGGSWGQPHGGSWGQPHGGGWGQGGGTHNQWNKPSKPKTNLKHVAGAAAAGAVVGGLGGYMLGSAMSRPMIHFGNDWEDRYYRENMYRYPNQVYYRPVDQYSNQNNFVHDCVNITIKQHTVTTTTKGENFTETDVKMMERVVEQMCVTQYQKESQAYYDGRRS

Molecule: N=C(N)NCCC[C@H](NC(=O)CNC(=O)CCCCCN)C(=O)N[C@@H](CCCCN)C(=O)N[C@@H](CCCCN)C(=O)N[C@@H](CCCNC(=N)N)C(=O)N[C@@H](CCCNC(=N)N)C(=O)N[C@@H](CCC(N)=O)C(=O)N[C@@H](CCCNC(=N)N)C(=O)N[C@@H](CCCNC(=N)N)C(=O)N[C@@H](CCCNC(=N)N)C(=O)N1CCC[C@H]1C(=O)N1CCC[C@H]1C(=O)N[C@@H](CCC(N)=O)C(N)=O [Comparative Example 1, reference compound]
- cytotoxicity (ScN2a cells): remarkably low cytotoxicity

Molecule: H-GRKKRRQRRRPPQ-GSGG-FKFEFKFEFKFE-NH2 [Example 1]
- anti-prion activity (PK-resistant PrP^SC level by western blot) (PrP^SC in ScN2a cells): gradual decrease in the PrP^SC concentration as its concentration is increased
- concentration at which anti-prion activity is exhibited (PrP^SC in ScN2a cells): ≥ 100 nM

Molecule: H-RR-ahx-FKFEFKFEFKFE-NH2 [Example 2]
- anti-prion activity (PK-resistant PrP^SC level by western blot) (PrP^SC in ScN2a cells): shows anti-prion activity, although weaker than that of the fusion peptide of Example 1

Molecule: H-RRRRRRRRRRRRRR-GSGG-FKFEFKFEFKFE-NH2 [Example 4]
- anti-prion activity at 30 nM (PrP^SC in ScN2a cells): remarkably high anti-prion activity

Molecule: H-RRRRRRRRRRRRRRR-GSGG-FKFEFKFEFKFE-NH2 [Example 5]
- anti-prion activity at 30 nM (PrP^SC in ScN2a cells): remarkably high anti-prion activity

Molecule: RRRRRRRRRRRRGSGGFKFEFKFEFKFE-NH2 [Example 3]
- anti-prion activity (PK-resistant PrP^SC level by western blot) (PrP^SC in ScN2a cells): remarkably higher anti-prion activity than the peptide consisting only of arginine residues of the same number (R12)
- anti-prion activity at 10 nM (PrP^SC in ScN2a cells): remarkably superior anti-prion activity
- fold decrease of anti-prion activity compared to R12-β UNS (PrP^SC in ScN2a cells): ≥ 14.5 times
- zeta potential difference, acidic condition (pH 2-5.5) versus neutral condition ([1]; pH 2): +14 to 18 mV
- zeta potential ([1]; pH 3): +40 mV
- zeta potential ([1]; pH 5): +38 mV
- zeta potential ([1]; pH 7): +24 mV
- zeta potential ([1]; pH 11): +30 mV
- diameter of vesicular nanostructure [2]: 20-90 nm
- height of vesicular nanostructure, on average [2]: 1-20 nm
- height of vesicular nanostructure, specifically [2]: 8-16 nm
- width of vesicular nanostructure, on average [2]: 50-100 nm
- width of vesicular nanostructure, specifically [2]: 70-90 nm
- cytotoxicity (ScN2a cells): significantly lower toxicity than the peptide of Comparative Example 3
- viability (in vitro): ≥ 70%

Molecule: RRRRRRRRRRRRGSGGFKFEFKFEFKFE-NH2 [R12-β SPN]
- anti-prion activity (PK-resistant PrP^SC level by western blot) (PrP^SC in ScN2a cells): comparable to that of the peptide of Example 1
- cytotoxicity (ScN2a cells): moderate cytotoxicity

Molecule: RRRRRRRRRRRRGSGGFKFEFKFEFKFE-NH2 [R12-β UNS]
- anti-prion activity (PK-resistant PrP^SC level by western blot) (PrP^SC in ScN2a cells): comparable to that of the peptide Comparative Example 3
- fold higher anti-prion activity than R12-β SPN (fibrillar nanostructure) (PrP^SC in ScN2a cells): 14.5 times
- cytotoxicity at 10 μM (ScN2a cells; pH 7.4): low toxicity
